From ChEMBL document CHEMBL6114947, “Navigating cancer therapy: Harnessing the power of peptide-drug conjugates as precision delivery vehicles” (Eur J Med Chem, 2025)

Legend:
[1] = Half life in BALB/c mouse plasma at 5 mg/kg, iv by LC-MS/MS analysis
[2] = tested on: PANC-1; assay: Antitumor activity against human PANC-1 cells xenografted in BALB/c mouse assessed as reduction in tumor volume at 2 mg/kg, iv administered once every 2 days and measured on day 74 relative to control; type: functional; parameters: scale not given: the % may be the effect or the level left; settings: time 74 day

| half-life [1] [h] | Compound | Activity [2] [%] |
| --- | --- | --- |
| 29.4 | COc1cccc2c1C(=O)c1c(O)c3c(c(O)c1C2=O)C[C@@](O)(C(=O)CO)C[C@@H]3O[C@H]1C[C@H](N)[C@H](O)[C@H](C)O1 [DOXORUBICIN] |  |
|  | COc1cccc2c1C(=O)c1c(O)c3c(c(O)c1C2=O)C[C@@](O)(C(C)=O)C[C@@H]3O[C@H]1C[C@H](N)[C@H](O)[C@H](C)O1 [DAUNORUBICIN] | 32.2 |
